Patent US20080319084A1, “Wrinkling Prevention or Remedy with Adam Activity Inhibiting Substance” (Shiseido Company, Ltd., priority 2004, published 2008)

How the values were obtained:
[1] = test system: finely wrinkled mouse model; assay: Evaluation of anti-wrinkling effects of ADAM activity inhibiting substances in finely wrinkled mouse model (visual score, wrinkle area); assay type: in vivo, hairless mouse (HR-1); conditions: for mean value of the wrinkle score (visual judgment, 0 no wrinkle to 3 deep wrinkles): after four weeks, 1 mM TAPI-1 or 1% 4-methoxybenzohydroxamic acid in 50% aqueous ethanol, 100 μl after each tape stripping, vehicle 1.17; for mean value of the wrinkle area (%) versus vehicle: replica analysis after four weeks, 1 mM TAPI-1 or 1% 4-methoxybenzohydroxamic acid
Protocol: The anti-wrinkling effects of TAPI-1 and 4-methoxybenzohydroxamic acid acting as the ADAM activity inhibiting substances were studied by use of the finely wrinkled mouse model.
Specifically, on the skin on the left side of the dorsal section of a hairless mouse (HR-1, male, six weeks of age, supplied by Hoshino Experimental Animals), the tape stripping was performed in three stages per week and was continued for four weeks such that the transepidermal water loss (TEWL) (as measured by use of a water evaporation quantity measuring apparatus MEECO, supplied by Meeco Co., U.S.A) might fall within the range of 4 mg/cm^2/h to 8 mg/cm^2/h. Immediately after each stage of the tape stripping processing had been performed, 100 μl of TAPI-1 or 4-methoxybenzohydroxamic acid was applied to the skin on the left side of the dorsal section of the mouse. At this time, 4-methoxybenzohydroxamic acid was dissolved in a 50% aqueous ethanol solution such that the concentration of 4-methoxybenzohydroxamic acid might become equal to 1%, and 4-methoxybenzohydroxamic acid was used in the form of the resulting solution. Also, TAPI-1 (supplied by Peptide Research Institute) was evaluated at a concentration of 1 mM. Further, as a negative control, a 50% aqueous ethanol solution (i.e., a vehicle) was applied in the same manner as that described above.
The state of occurrence of wrinkles after a period of four weeks had elapsed was expressed by scores with visual judgment. The state of occurrence of wrinkles was evaluated with the rating described below. • 0: No wrinkle • 1: shallow wrinkles • 2: clear wrinkles • 3: Deep wrinkles The state of occurrence of wrinkles was expressed by the scores at intervals of 0.5. A larger score represents deeper wrinkles. The mean value and the standard deviation of each group were calculated. The results illustrated in FIG. 5 were obtained.
Thereafter, the replicas of the dorsal section of the mouse were analyzed by use of a wrinkle analyzing apparatus (supplied by Hamano Engineering), and the wrinkle area (%) was calculated. A low wrinkle area percentage represents that the wrinkle formation has been suppressed. The results illustrated in FIG. 6 were obtained.

ADAM enzyme = assay: Screening of ADAM activity inhibiting substance: TPA-induced HB-EGF-AP release from HB-EGF-AP/HT-1080 cells; assay type: cell-based, human; conditions: 60 nM TPA, 60 minutes
Protocol: Firstly, the screening of a compound having the ADAM enzyme inhibiting activity was performed by use of HB-EGF-AP/HT-1080 (human fibrosarcoma-derived cultured cells HT-1080 having been modified so as to achieve forcible expression of a fusion protein, in which heat-resistant alkaline phosphatase (AP) has been added to an N terminal of human HB-EGF). On the surfaces of the cells of the used cell strain HB-EGF-AP/HT-1080, the HB-EGF entire length molecule is expressed in the form fused with the alkaline phosphatase. In cases where the cells are excited by a phorbol ester, the ADAM enzyme on the cell membrane surfaces is activated to cut the HB-EGF molecule. Since alkaline phosphatase has been bound to HB-EGF having been cut into the released form, in cases where the alkaline phosphatase activity in a culture supernatant is measured, the ADAM enzyme inhibiting activity of the compound is capable of being measured indirectly.
Specifically, HB-EGF-AP/HT-1080, in which the number of cells had been adjusted at 2.0×10^5 cells/ml, was sowed at a rate of 0.2 ml/well to a 96-well culture micro-plate and was cultured overnight at a temperature of 37° C. […] After the incubation was performed at the room temperature for two hours under a light blocking condition, the absorbance in each well at the wavelength of 405 nm was measured again. […]

Photo-aged mouse model = assay: Wrinkle formation in Photo-aged mouse model (UV light irradiation); assay type: in vivo
Protocol: FIG. 2A is a diagram showing replica images of the mouse skin having been subjected to the tape stripping in the manner described above. FIG. 2B is a diagram showing microscopic photographs of a skin tissue slice of the mouse skin, which skin tissue slice has been stained with HE (hematoxylin-eosin). As illustrated in the replica images (FIG. 2A), skin ditches became deep at the stage 24 hours (24 h) after the beginning of the tape stripping and at the stage 48 hours (48 h) after the beginning of the tape stripping. At the stage one week (1 W) after the beginning of the tape stripping, the directions of the skin ditches coincided with predetermined directions. At the stage four weeks (4 W) after the beginning of the tape stripping, a wrinkle-like appearance occurred. […] At the stage two weeks (2 W) after the beginning of the tape stripping, the epidermal hyperplasia was kept. Table 1 shown below lists morphological alterations, histological alterations, and the like, of the finely wrinkled mouse model having been prepared in the manner described above together with the morphological alterations, histological alterations, and the like, of a Photo-aged mouse model having been prepared with UV light irradiation (for 10 weeks).

[2] = test system: finely wrinkled mouse model; assay: Anti-wrinkling effects of medicine application on finely wrinkled mouse model (tape stripping); assay type: in vivo, hairless mouse (HR-1); set-up: key to Wrinkling suppressing effects / Epidermal hyperplasia suppressing effects / Dermal hyperplasia suppressing effects: O: Remedied.; Δ: No alteration was found.; x: Aggravated; conditions: for Dermal hyperplasia suppressing effects / Epidermal hyperplasia suppressing effects / Wrinkling suppressing effects: 100 μl applied to skin after each tape stripping, 2 mM TAPI-1, 1% CGS27023A, 10% glycerol, 1% oleic acid; for Dermal hyperplasia suppressing effects / Epidermal hyperplasia suppressing effects: four weeks, HE-stained slices; for Wrinkling suppressing effects: up to four weeks; for hyperplasia of the epidermis and the dermis (in words) / wrinkle formation (in words): finely wrinkled mouse model, topical application
Protocol: It is considered that, in cases where the skin barrier is weakened or disrupted by various primary factors, such as a decrease in sebum and face washing, and water evaporation from the skin surface increases, the skin dries, and the fine wrinkles are formed. Therefore, tape stripping was repeatedly performed on the skin of a hairless mouse, the stratum corneum of thus peeled off, and the skin barrier was broken. In this manner, a finely wrinkled mouse model was prepared. Specifically, the tape stripping with cellophane adhesive tapes was performed on the skin on the left side of the dorsal section of a hairless mouse (HR-1, male, six weeks of age, supplied by Hoshino Experimental Animals) with the number of times of the tape stripping being adjusted such that a transepidermal water loss (TEWL) (as measured by use of a water evaporation quantity measuring apparatus MEECO, supplied by Meeco Co., U.S.A) might fall within the range of 4 mg/cm^2/h to 6 mg/cm^2/h. Ordinarily, at the initial stage, the tape stripping was iterated approximately four times. At the final stage, the tape stripping was iterated seven to eight times. The tape stripping was performed in three stages per week and was continued for four weeks. The right side of the dorsal section of the hairless mouse was left to stand as a non-treatment area. Studies were made with respect to the anti-wrinkling effects of the application of various medicines, which were listed in Table 2 below, on the finely wrinkled mouse model. Specifically, the tape stripping was performed on a hairless mouse in the manner described above. After each tape stripping processing, 100 μl of each of the medicines listed in Table 2 was applied to the skin of the hairless mouse. FIG. 4A is a diagram showing replica images of skins having been applied with different medicines in the finely wrinkled mouse model, which replica images have been taken at stages one week, two weeks, and four weeks after the application of each of the medicines. FIG. 4B is a diagram showing microscopic photographs of skin tissue slices of the skins at the stage four weeks after the application of each of the medicines, which skin tissue slices have been stained with HE (hematoxylin-eosin).

SMILES	mean value of the wrinkle score (visual judgment, 0 no wrinkle to 3 deep wrinkles) [1]	mean value of the wrinkle area (%) versus vehicle [1]	Inhibition rate (%) of HB-EGF release (ADAM enzyme; concentration 10 μg/ml) [%]	Inhibition rate (%) of HB-EGF release (ADAM enzyme; concentration 50 μg/ml) [%]	wrinkle formation preventing effects (in words) (Photo-aged mouse model)	Dermal hyperplasia suppressing effects [2]	Epidermal hyperplasia suppressing effects [2]	Wrinkling suppressing effects [2]	hyperplasia of the epidermis and the dermis (in words) [2]	wrinkle formation (in words) [2]
COc1ccc(C(=O)NO)cc1 [4-Methoxybenzohydroxamic acid]	0.91	significantly lower	14.8	55.8	–	–	–	–	–	–
COc1ccc(S(=O)(=O)N(Cc2cccnc2)[C@@H](C(=O)NO)C(C)C)cc1 [CGS27023A]	–	–	–	–	exhibited the wrinkle formation preventing effects	Δ	Δ	Δ	not capable of suppressing the hyperplasia of the epidermis and the dermis	not capable of suppressing the wrinkle formation at all
OCC(O)CO [Glycerol]	–	–	–	–	–	Δ	x	Δ	not capable of suppressing the hyperplasia of the epidermis and the dermis	not capable of suppressing the wrinkle formation at all
CCCCCCCC/C=C\CCCCCCCC(=O)O [Oleic acid]	–	–	–	–	–	x	x	x	accelerated the hyperplasia of the epidermis and the dermis	promoted the wrinkle formation
CC(C)C[C@H](CC(=O)NO)C(=O)N[C@@H](Cc1ccc2ccccc2c1)C(=O)N[C@@H](C)C(=O)NCCN [TAPI-1, N—(R)-(2-(Hydroxyaminocarbonyl)methyl)-4-Methylpentanoyl-L-Nal-L-Alanine 2-Aminoethyl amide]	0.43	significantly lower	–	–	–	∘	∘	∘	markedly suppressed the hyperplasia of the epidermis and the dermis	suppressed the wrinkle formation
